Test results as given in ChEMBL document CHEMBL5620427, “Recent advances in Fragment-based strategies against tuberculosis” (Eur J Med Chem, 2023).

System: Mycobacterium tuberculosis variant bovis
Test: Antibacterial activity against Mycobacterium bovis BCG ATCC 35734 assessed as bacterial growth inhibition measured after 3 weeks by resazurin dye based assay
Assay type: functional
Conditions: BCG ATCC 35734, 504 h

| Compound | MIC99 [µM] |
| --- | --- |
| NS(=O)(=O)c1cc(Cl)cc(Cl)c1 | < 56 |
| CCOC(=O)c1cc(Cl)c(O)c(Cl)c1 | < 53 |
